This is an account of results in article PMC7994753, “The Availability of the α7-Nicotinic Acetylcholine Receptor in Early Identification of Vulnerable Atherosclerotic Plaques: A Study Using a Novel ^18F-Label Radioligand PET” (Frontiers in Bioengineering and Biotechnology, 2021).

Broadly, the Ki is a measure of affinity in units of concentration, obtained from inhibition or displacement.

Data set [1] has as its target T1, α4β2nAChR (Mus musculus, UniProt O70174+Q9ERK7).
T1 construct: from tissue; host or cells: brain of living CD-1 mice
Description: Blocking experiment with cytisine pre-injection, brain uptake. It counts as in vivo. The conditions noted are these: cytisine 1 mg/kg pre-injected 5 min before tracer; CD-1 mice brain, 60 min after injection. As to the method:
(§1) To further determine the specific binding of [^18F]YLF-DW to α7nAChR over other similar receptors, blocking experiments were carried out by pre-subcutaneous injection of blocking agents. α4β2nAChR, a heteromeric nAChR subtype widely expressed and 5-HT3, a receptor sharing high sequence homology with α7nAChR, were the most likely receptors to cross binding with α7nAChR ligands. We used the brain tissues of CD-1 mice to do the blocking experiment. Cytisine (1 mg/kg, a selective partial agonist of α4β2nAChR) and ondansetron (2 mg/kg, a selective antagonist of 5-HT3) were pre-injected 5 and 10 min prior to the intravenous injection of [^18F]YLF-DW, respectively. The CD-1 mice were sacrificed at 60 min after the [^18F]YLF-DW injection, and the brain tissues were harvested.

The target in data set [2] is T2, 5-HT3 (Mus musculus, UniProt P23979).
T2 construct: from tissue; host or cells: brain of living CD-1 mice
T2 sequence (P23979 24-489): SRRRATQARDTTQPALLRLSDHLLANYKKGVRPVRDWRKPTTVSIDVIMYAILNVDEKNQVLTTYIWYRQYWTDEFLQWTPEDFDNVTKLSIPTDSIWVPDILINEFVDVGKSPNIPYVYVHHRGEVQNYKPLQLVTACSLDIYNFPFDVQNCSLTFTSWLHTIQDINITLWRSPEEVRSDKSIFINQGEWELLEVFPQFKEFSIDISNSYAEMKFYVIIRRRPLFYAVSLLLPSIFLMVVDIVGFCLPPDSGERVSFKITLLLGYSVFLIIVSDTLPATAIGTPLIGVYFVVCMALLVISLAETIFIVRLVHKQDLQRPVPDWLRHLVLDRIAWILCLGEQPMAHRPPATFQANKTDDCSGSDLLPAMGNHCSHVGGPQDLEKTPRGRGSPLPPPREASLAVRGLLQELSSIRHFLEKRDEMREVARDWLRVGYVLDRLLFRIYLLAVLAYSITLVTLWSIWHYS
The data set can be described thus: Blocking experiment with ondansetron pre-injection, brain uptake. It counts as in vivo. The conditions noted are these: ondansetron 2 mg/kg pre-injected 10 min before tracer; CD-1 mice brain, 60 min after injection. As to the method:
as §1

Data set [3] has as its target T3, α7nAChR in atherosclerotic plaques (Mus musculus, UniProt P49582).
T3 construct: superimposed on the high uptake region in carotid arteries of ApoE-/-mice; from tissue; host or cells: carotid arteries / atherosclerotic plaques of living ApoE-/- mice and normal mice
Description: Micro-PET/CT imaging of carotid atherosclerotic plaques. In kind it is in vivo, ApoE-/-mice and normal mice. From the text:
ApoE-/-mice (n = 6, weight 25–33 g) and normal mice (n = 6, weight 25–33g) were purchased from Qingzilan Technology Co., Ltd (Nanjing, China). After 1 week of feeding with common feed, the selected ApoE-/-mice were fed with western diet, containing 21% fat and 0.15% cholesterol content, with a high-fat/high-cholesterol content for 9–10 weeks and subjected to micro-PET/CT imaging. The tissues were used for red staining and immunohistochemistry experiments. The normal mice served as controls for micro-PET/CT imaging and their tissues for immunohistochemistry. All mice were kept in a temperature-controlled environment with a 12 h light/dark cycle with free access to food and water. Animal care and experimental procedures were conducted in compliance with the Helsinki Declaration and approved by Fuwai hospital animal care committee.
When the animal models were 10 and 11 weeks old, the micro-PET/CT imaging were conducted. An Inveon small animal PET/CT scanner (Siemens,Germany) was used to perform the scans. A total volume of 5.56 MBq (150 μCi) of [^18F]YLF-DW was injected into six ApoE-/-mice and six normal mice by the tail veins, and the animal models were anesthetized with 2% isoflurane through inhalation. We performed PET/CT dynamic scanning. After screening, the acquisition was performed at 1 h after tail vein injections. The micro-PET/CT was initially performed with the following parameters: energy peak, 511 keV; window width, 3.5 E0 SUV-bw; resolution, 0.775 mm/pixel; and matrix, 128 × 128. Each mouse required a 15-min acquisition and the computed tomography (CT) was performed after PET scanning in the same bed position using the following parameters: frame resolution, 256 × 512; tube voltage, 80 kVp; current, 0.5 mA; and exposure time, 500 ms/frame.
The images were reconstructed by two-dimensional-ordered subsets expectation maximization. The three-dimensional regions of interest (ROIs) were superimposed on the high uptake region in carotid arteries of ApoE-/-mice. The tissue density was presumed as 1 g/ml, and % ID/g was calculated based on the dose injected into the mice.

Data set [4] addresses α7nAChR. Further details: method as in Wang S. et al., 2018. The conditions noted are these: previous experiment, ref Wang S. et al., 2018; cited from earlier work.
On the set-up of data set [5]: method as in Wang S. et al., 2018. The conditions noted are these: ref Wang S. et al., 2018, cited from earlier work.

T3 sequence (P49582 23-502): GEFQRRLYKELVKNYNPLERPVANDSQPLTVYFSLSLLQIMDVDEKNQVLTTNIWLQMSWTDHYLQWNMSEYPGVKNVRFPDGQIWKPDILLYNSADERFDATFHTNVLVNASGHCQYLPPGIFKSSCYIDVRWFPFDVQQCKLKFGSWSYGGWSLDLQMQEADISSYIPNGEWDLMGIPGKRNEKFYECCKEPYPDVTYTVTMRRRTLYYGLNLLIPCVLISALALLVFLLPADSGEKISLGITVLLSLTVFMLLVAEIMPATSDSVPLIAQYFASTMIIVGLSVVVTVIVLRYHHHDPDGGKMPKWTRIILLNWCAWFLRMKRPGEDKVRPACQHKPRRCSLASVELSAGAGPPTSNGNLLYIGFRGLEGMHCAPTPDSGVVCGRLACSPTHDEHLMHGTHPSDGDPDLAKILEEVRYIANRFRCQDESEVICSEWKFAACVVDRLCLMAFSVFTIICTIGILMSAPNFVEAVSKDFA
T1 sequence (O70174 31-629): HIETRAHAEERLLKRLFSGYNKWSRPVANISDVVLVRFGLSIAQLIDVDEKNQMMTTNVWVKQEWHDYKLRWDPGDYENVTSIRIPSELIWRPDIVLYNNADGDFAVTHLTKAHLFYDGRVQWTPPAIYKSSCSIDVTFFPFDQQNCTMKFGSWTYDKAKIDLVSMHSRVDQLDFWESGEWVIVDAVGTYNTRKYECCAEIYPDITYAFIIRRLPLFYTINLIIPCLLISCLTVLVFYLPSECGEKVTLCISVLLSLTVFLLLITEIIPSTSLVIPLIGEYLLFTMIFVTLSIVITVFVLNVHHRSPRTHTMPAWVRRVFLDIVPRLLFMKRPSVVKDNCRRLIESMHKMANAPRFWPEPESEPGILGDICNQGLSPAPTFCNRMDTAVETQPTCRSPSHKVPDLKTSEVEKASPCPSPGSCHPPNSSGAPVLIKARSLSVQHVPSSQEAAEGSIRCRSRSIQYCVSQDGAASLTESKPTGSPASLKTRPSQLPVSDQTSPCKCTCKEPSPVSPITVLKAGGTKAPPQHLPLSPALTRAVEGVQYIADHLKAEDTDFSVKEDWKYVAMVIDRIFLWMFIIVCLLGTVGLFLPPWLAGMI
T1 sequence (Q9ERK7 26-501): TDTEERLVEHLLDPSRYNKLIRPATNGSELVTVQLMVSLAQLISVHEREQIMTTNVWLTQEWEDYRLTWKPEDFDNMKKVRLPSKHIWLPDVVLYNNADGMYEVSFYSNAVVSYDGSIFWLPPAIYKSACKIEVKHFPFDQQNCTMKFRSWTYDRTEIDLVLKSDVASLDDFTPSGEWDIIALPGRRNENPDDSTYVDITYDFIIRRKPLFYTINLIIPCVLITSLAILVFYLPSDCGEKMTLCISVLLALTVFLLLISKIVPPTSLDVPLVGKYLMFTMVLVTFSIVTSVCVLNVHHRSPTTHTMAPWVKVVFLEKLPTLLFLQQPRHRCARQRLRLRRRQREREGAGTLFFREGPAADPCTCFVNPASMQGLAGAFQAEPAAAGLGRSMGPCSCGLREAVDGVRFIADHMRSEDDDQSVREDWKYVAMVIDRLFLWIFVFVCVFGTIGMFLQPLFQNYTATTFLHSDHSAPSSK

With `O=C1c2cc(N3CCN4CCC3CC4)ccc2-c2cccc([18F])c21` [[^18F]YLF-DW], the “difference in radioligand uptake, blocked group vs control group” value in data set [1] and in data set [2] was “no significant difference” in each case. For the same compound, the “carotid artery plaque imaging signal” value in data set [3] (ApoE-/-mouse, 5.56 MBq i.v., acquisition 1 h after injection) is “obvious in the carotid artery”. For the same compound, in data set [3] (ApoE-/-mouse, comparison with [^18F]FDG), the “early detection of carotid plaques compared with traditional imaging agent” value is “better than [^18F]FDG”. Besides, in data set [3] (normal control mice, 5.56 MBq i.v., acquisition 1 h after injection), the “carotid artery imaging signal” value is reported as “no signal was observed”. For the same compound, the Ki in data set [4] was 2.98 ± 1.41 nM. In data set [5] (15 min post-injection, Kunming mouse), the initial brain uptake was 11.60 ± 0.14 %ID/g. In addition, in data set [5] (30 min post-injection, Kunming mouse), the brain/blood value is on record as 9.57. Moreover, in data set [5] (Kunming mouse brains), the clearance from brain result is “fast clearance”.
